Laboratory results from publication PMC6661759 (BMC Chemistry, 2019).
Values after ≈ are worked out from the molar mass of the structure shown. Where two headings read alike, the source gives them in different places.

What was measured:
[1] = tested on: H. pylori bacterium (DSM 4867); assay: Anti-H. pylori activity, well diffusion technique; type: cell-based, Helicobacter pylori; details: H. pylori DSM 4867, 2500 µg per well, 24–48 h
Method: (§1) Derivatives C4a, C4b and C4d which were found best in urease inhibition and antioxidant activity as well as in terms of docking score were tested further against antibacterial efficiency against Helicobacter pylori DSM 4867 using AHA as a standard and DMSO as control. […] In-vitro results concluded that compound C4a bearing nitro and chloro group at 2nd and 4th position indicated excellent antibacterial action against H. Pylori probably by interacting with the target protein efficiently and inhibited the growth of pathogenic bacteria.
(§2) Since H. Pylori is not acidophilic in nature therefore it requires urease, which produced ammonia by hydrolyzing urea present in stomach, for its survival in acidic gastric medium. Because of virulence nature of urease researchers decided to target its inhibition for anti-H. Pylori drugs. Novel synthesized derivatives were investigated against H. pylori bacterium (DSM 4867, AHA as standard) for their antibacterial activity by using Well diffusion technique. The stock solution of compounds in DMSO (1000 μg/mL) were prepared. Cell suspension was prepared from culture grown on BHI broth. The cell suspensions of all the cultures were adjusted to 1–2 × 10^5 cells/mL. Helicobacter pylori (100 µL) was inoculated by spread plate technique on agar plates (90 mm). […] MIC was determined against Helicobacter pylori by micro broth dilution technique as per NCCLS method.

[2] = tested on: Helicobacter pylori DSM 4867; assay: MIC against Helicobacter pylori by micro broth dilution technique; type: cell-based; details: H. pylori DSM 4867, micro broth dilution
Method: as §1, §2

[3] = DPPH assay for antioxidant activity; details: DPPH free radical scavenging, mean SEM
Method: (§3) As structure of urease from different sources has common structural features therefore urease inhibition studies were carried out on jack bean urease. Inhibition studies were carried out by indophenol technique described by Weatherburn in which measurement of concentration of ammonia released during the reaction between reagents and compounds were done.
Antioxidant nature of the synthesized derivatives was measured by the help of DPPH method. According to this method synthesized compounds were allowed to react for 0.5 h at 37 °C with stable free radical, 1, 1-diphenyl-2-picrylhydrazyl radical (DPPH). The DPPH was taken in a concentration of 300 µM. Decrease in value of absorption at 515 nm was measured after the period of incubation using a microplate reader using ascorbic acid as a standard. Molecule capable of donating proton to DPPH and cause its reduction acts as an antioxidant. Following reduction deep violet coloured DPPH solution changes to yellow depending upon the nature of antioxidant compound, which brings a measurable decrease in value of absorption at 517 nm. The proton or electron donating capacity of the derivative was estimated from the fading of deep purple colored methanolic solution of 1, 1-diphenylpicrylhydrazyl (DPPH). Incubation of mixture was done at room temperature for 30 min and measurements were done at 517 nm against blank. Calculation of percentage inhibition was done by following formula: I\%=AControl-ASample/AControl×100 where, Acontrol is control absorbance; Asample is test absorbance.

Jack Bean Urease [4] = target: T1, Jack Bean Urease (Canavalia ensiformis, UniProt P07374); assay: Enzyme kinetics, Lineweaver-Burk plot; type: biochemical; details: varying urea, phosphate buffer, 1 mM EDTA, pH 8.2
T1 construct: purchased Sigma Aldrich
Method: Study of inhibitory effect of chlorogenic derivatives on jack bean urease was performed to check the inhibitory potential, kinetics studies and mechanism of inhibition in phosphate buffer and 1 mM EDTA at pH 8.2. […] Competitive inhibition infers that compound C4a will probably compete for binding at the site of substrate in enzyme active site pocket.
(substrate concentration) against 1/[V] velocity. To examine the mode of inhibition compound C4a was solubilized in DMSO and further dilutions were prepared accordingly. Plot was prepared by using varying concentration of substrate (urea) in with varying concentration of inhibitor C4a. Inhibitory constant values (Ki) were determined as the interaction on the X-axis of the plots of the slope against different concentration of derivatives C4a. […] All experiments were performed in triplicate and kinetic study for interaction of enzyme with inhibitor was computed with Graphpad prism 7.0 software.

Jack Bean Urease [5] = target: T1, Jack Bean Urease; assay: biochemical
Method: as §3
Urease enzyme inhibition investigation studies for all synthesized compounds were done by the method developed by Weatherburn (1967) named Indophenol against Jack Bean Urease. Briefly, incubation of solution of Jack bean protein 25 μL was done at temperature of 30 °C for a period of 15 min with 55 μL of buffers solution having 100 mM urea and 5 μL of test solution in 96-well plates. 45 μL phenol solution composing phenol 1% w/v and solution of sodium nitroprusside 0.005% w/v and alkali reagent 70 μL composed of sodium hydroxide 0.5% w/v and active sodium hypochloride solution 0.1% were mixed to every well. The measurement of increase in absorption at 625 nm was done after 50 min by help of a microplate reader (Molecular Device, USA). Readings were recorded in triplicate set in a final volume of 200 μL using thiourea as standard. Each assay was performed at pH 8.2 (0.01 M K2HPO4.3H2O, 0.01 M […] and 1 mM EDTA). Calculation of Inhibition in percentage of synthesized derivatives was done by the formula given as: I\%=AControl-ASample/AControl×100 where, Acontrol is control absorbance; Asample is test absorbance.

T1 sequence (P07374 whole entry, looked up): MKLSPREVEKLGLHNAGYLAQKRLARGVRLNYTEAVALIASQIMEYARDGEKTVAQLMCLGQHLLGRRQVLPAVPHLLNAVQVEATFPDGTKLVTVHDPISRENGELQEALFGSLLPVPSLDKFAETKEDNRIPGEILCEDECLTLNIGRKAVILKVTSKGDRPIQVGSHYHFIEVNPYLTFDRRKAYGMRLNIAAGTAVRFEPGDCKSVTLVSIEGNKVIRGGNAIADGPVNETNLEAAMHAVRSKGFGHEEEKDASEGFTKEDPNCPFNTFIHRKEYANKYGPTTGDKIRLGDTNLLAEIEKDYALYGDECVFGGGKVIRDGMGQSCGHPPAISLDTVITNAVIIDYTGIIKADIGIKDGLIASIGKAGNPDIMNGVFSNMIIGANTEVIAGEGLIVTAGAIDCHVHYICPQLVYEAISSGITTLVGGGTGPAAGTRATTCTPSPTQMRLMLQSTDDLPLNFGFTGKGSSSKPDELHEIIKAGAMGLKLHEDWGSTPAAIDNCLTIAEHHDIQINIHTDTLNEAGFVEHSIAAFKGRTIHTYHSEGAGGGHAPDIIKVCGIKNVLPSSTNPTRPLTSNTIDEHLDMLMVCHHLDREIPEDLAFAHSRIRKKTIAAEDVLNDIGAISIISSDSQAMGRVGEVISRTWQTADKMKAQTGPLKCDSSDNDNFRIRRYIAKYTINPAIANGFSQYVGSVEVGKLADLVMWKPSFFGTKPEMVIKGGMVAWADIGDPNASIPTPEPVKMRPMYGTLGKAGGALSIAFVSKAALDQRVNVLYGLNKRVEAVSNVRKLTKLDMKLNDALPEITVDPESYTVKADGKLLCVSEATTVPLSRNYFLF

CC(=O)NO [AHA, acetohydroxamic acid, reference compound]
zone of inhibition [1]: 9.00 ± 0.50 mm | MIC [2]: 1000 µg/mL (≈ 13300 µM)

O=C1O[C@H]([C@@H](O)CO)C(O)=C1O [Ascorbic acid, ascorbic acid, reference compound]
IC50 [3]: 8.59 ± 0.004 µM

O=C(/C=C/c1ccc(O)c(O)c1)O[C@@H]1C[C@](O)(C(=O)Nc2ccc([N+](=O)[O-])cc2Cl)CC(O)C1O (stereo partly drawn) [C4a, (1R, 5S)-5-((2-chloro-4-nitrophenyl)carbamoyl)-2,3,5-trihydroxycyclohexyl (2E)-3-(3,4-dihydroxyphenyl)prop-2-enoate]
mode of inhibition (Jack Bean Urease [4]): competitive type of Inhibition | zone of inhibition [1]: 10.00 ± 0.00 mm | MIC ([2]; Helicobacter pylori, DSM4867, read-out: MIC): 500 µg/mL (≈ 983 µM) | IC50 (Jack Bean Urease [5]): 11.01 ± 0.013 µM | IC50 [3]: 5.1 ± 0.018 µM

O=C(/C=C/c1ccc(O)c(O)c1)O[C@@H]1C[C@](O)(C(=O)Nc2ccc(Cl)cc2[N+](=O)[O-])CC(O)C1O (stereo partly drawn) [C4b, (1R, 5S)-5-((4-chloro-2-nitrophenyl)carbamoyl)-2,3,5-trihydroxycyclohexyl (2E)-3-(3,4-dihydroxyphenyl)prop-2-enoate]
IC50 (Jack Bean Urease [5]): 15.86 ± 0.004 µM | IC50 [3]: 6.01 ± 0.005 µM

O=C(/C=C/c1ccc(O)c(O)c1)O[C@@H]1C[C@](O)(C(=O)Nc2ccc(Br)cc2)CC(O)C1O (stereo partly drawn) [C4c, (1R, 5S)-5-((4-bromophenyl)carbamoyl)-2,3,5-trihydroxycyclohexyl (2E)-3-(3,4-dihydroxyphenyl)prop-2-enoate]
IC50 (Jack Bean Urease [5]): 22.02 ± 0.027 µM | IC50 [3]: 8.48 ± 0.026 µM

O=C(/C=C/c1ccc(O)c(O)c1)O[C@@H]1C[C@](O)(C(=O)Nc2cccc([N+](=O)[O-])c2)CC(O)C1O (stereo partly drawn) [C4d, (1R, 5S)-2,3,5-trihydroxy-5-((3-nitrophenyl)carbamoyl)cyclohexyl (2E)-3-(3,4-dihydroxyphenyl)prop-2-enoate]
IC50 (Jack Bean Urease [5]): 13.8 ± 0.041 µM | IC50 [3]: 5.34 ± 0.007 µM

COc1cccc(NC(=O)[C@]2(O)CC(O)C(O)[C@H](OC(=O)/C=C/c3ccc(O)c(O)c3)C2)c1 (stereo partly drawn) [C4e, (1R, 5S)-2,3,5-trihydroxy-5-((3-methoxyphenyl)carbamoyl) cyclohexyl (2E)-3-(3,4-dihydroxyphenyl)prop-2-enoate]
IC50 (Jack Bean Urease [5]): 20.6 ± 0.001 µM | IC50 [3]: 6.85 ± 0.02 µM

COc1ccc(NC(=O)[C@]2(O)CC(O)C(O)[C@H](OC(=O)/C=C/c3ccc(O)c(O)c3)C2)cc1 (stereo partly drawn) [C4f, (1R, 5S)-2,3,5-trihydroxy-5-((4-methoxyphenyl)carbamoyl)cyclohexyl (2E)-3-(3,4-dihydroxyphenyl)prop-2-enoate]
IC50 (Jack Bean Urease [5]): 21.83 ± 0.009 µM | IC50 [3]: 7.89 ± 0.006 µM

Cc1ccccc1NC(=O)[C@]1(O)CC(O)C(O)[C@H](OC(=O)/C=C/c2ccc(O)c(O)c2)C1 (stereo partly drawn) [C4g, (1R, 5S)-2,3,5-trihydroxy-5-((2-methylphenyl)carbamoyl)cyclohexyl (2E)-3-(3,4-dihydroxyphenyl)prop-2-enoate]
IC50 (Jack Bean Urease [5]): 21.5 ± 0.032 µM | IC50 [3]: 7.75 ± 0.011 µM

O=C(/C=C/c1ccc(O)c(O)c1)O[C@@H]1C[C@](O)(C(=O)Nc2ccccc2F)CC(O)C1O (stereo partly drawn) [C4h, (1R, 5S)-5-((2-fluorophenyl)carbamoyl)-2,3,5-trihydroxycyclohexyl (2E)-3-(3,4-dihydroxyphenyl)prop-2-enoate]
IC50 (Jack Bean Urease [5]): 21.24 ± 0.016 µM | IC50 [3]: 7.23 ± 0.008 µM

O=C(/C=C/c1ccc(O)c(O)c1)O[C@@H]1C[C@](O)(C(=O)O)C[C@@H](O)[C@H]1O [CHLG, chlorogenic acid, reference compound]
IC50 (Jack Bean Urease [5]): 22.68 ± 0.006 µM

NC(N)=S [Thiourea, thiourea, reference compound]
IC50 (Jack Bean Urease [5]; jack bean urease, indophenol method, pH 8.2, mean SEM, read-out: IC50 (µM) urease inhibition): 22.8 ± 0.011 µM
